Laboratory results as given in patent US20210393636A1, “TREATMENT OF CNS AND DEVELOPMENTAL DISORDERS USING HIGH DOSE 5-FORMYL-(6S)-TETRAHYDROFOLATE” (priority 2019, published 2021).

How the values were obtained:
[1] = parenteral 5 mg twice weekly or oral 0.5-20 mg/kg/day; cited from earlier work
[2] = Tissue distribution of folates 24 h after oral administration of folate forms (Example 2); assay type: in vivo, rats; settings: for Total 5-MTHF + PGA in Brain: derived from cortex and cerebellum
Description: (§1) This study evaluated the difference in folate absorption in non-pregnant rats, pregnant rats, pregnant rats injected with a control antibody, and pregnant rats injected with antibody to the folate receptor alpha. Eight (8) rats were assigned to each group for a total of thirty-two (32) rats. Two rats within each group were administered a single oral dose of PGA, 5-methyl-(6S)-THF, folinic acid or 5-formyl-(6S)-THF as a liquid solution and sacrificed at 24-hours to evaluate folate absorption patterns. The total amount of each form of folate administered to each rat was 4 mg/kg.
Additional analyses were performed in various tissues of the pregnant and non-pregnant rats. For tissues other than serum, each tissue was collected, weighed and stored at −20 C. For the folate assay each tissue was suspended in 3 volumes of phosphate buffer containing 2% ascorbic acid pH 7.4 and homogenized using a polytron probe. An aliquot of this homogenate was diluted 10 fold in PO4 buffer PH 5.5 containing 0.2% ascorbic acid, in a glass tube, sealed and placed in a boiling water bath for 10 min. The tube was cooled to room temperature, precipitate removed by centrifugation and the clear supernatant assayed for folate. Brain concentrations were derived from cortex and cerebellum.

[3] = 25 mg liquid elixir, oral; cited from earlier work
[4] = in vivo
Description: For this study, 4 mg/kg folate was administered as a single dose to 250-300 g male Wistar rats. […] For each form of folate 4 time points of 30 min, 1 h, 2 h and 4 h were evaluated. For each time point 2 rats were used. The folate form dissolved in 0.5 ml buffered saline was administered orally using a blunt needle attached to a 1 ml syringe. The rats were euthanized by CO2 inhalation.
Blood was drawn cardiac puncture, allowed to clot for 30 min, serum separated, diluted in equal volume of 4% ascorbate pH 7.2 and kept frozen at −20 C. Folate forms in the serum was determined by HPLC and the peaks were quantified by comparing to known standards as described below.
Folate standards (5-MTHF, FA, THF and Formyl-THF) and 13C-labeled stable isotope internal standards (13C5-5-MTHF, 13C5-FA and 13C-Formyl-THF) were obtained from Schircks Laboratories (Switzerland). Formic acid, ascorbic acid and dithiothreitol (DTT) were obtained from Fluka and Optima LC-MS grade methanol from Fisher Scientific. Stock standards for each folate metabolite and internal standards were prepared as 1 mmol/L solutions in water containing 2 mg/mL ascorbic acid and stored at −80° C. Microtiter plates used for were purchased from NUNC.
Liquid chromatography electrospray ionization mass spectrometry (LC-ESI-MS/MS) analysis of plasma 5-MTHF, FA, THF, Formyl-THF was performed on a Sciex 5500QTRAP mass spectrometer (Foster City, Calif., USA) coupled with a Shimadzu ultra-high pressure Nexera chromatograph system (Kyoto, Japan). The MS/MS experiments were performed under positive electrospray ionization (+ESI) with multiple-reaction monitoring (MRM) using a Turbolon Spray electrospray source operating at a voltage of 5.5 kV and desolvation temperature of 500° C. The calibration curve was prepared in water containing 2 mg/mL ascorbic acid over a range of 12.5-400 nmol/L for each folate analyte.
Sample preparation involved combining 50 µl of blank, standard, control or sample with 10μ1 62.5 mM dithiothreitol, 20 mg/ml ascorbic acid and 2.5 μM 13C5-5-MTHF, 13C5-FA, 13C-Formyl-THF in 1.5 mL Eppendorf tubes, mixed by vortex and incubated for 10 minutes at room temperature in the dark. Next, samples were deproteinized with 5 volumes of methanol containing 2 mg/ml of ascorbic acid and vortexed and centrifuged at 14800 rpm for 10 minutes. Supernatant was loaded in a 96-well microtiter plate for analysis. The samples were analyzed following injection of 10 μL of extract on a Synergi Hydro 4μ 150×3 mm with a 4×2 mm SecurityGuard column (Phenomenex, Calif., USA) maintained at 40° C. (Phenomenex) and eluted in a gradient with buffer A (100% water with 0.1% formic acid) and buffer B (100% Methanol with 0.1% formic acid). The flow rate was 0.5 mL/min, with a gradient over a total run time of 6 min: 0.0-2.0 min, 0-100% B; 2.5 min, 100% B; 2.6-6.0 min, 0% B.
Total analytical analysis, including column re-equilibration, was 6 minutes. Eluent flow from the column was diverted to waste at the beginning and end of each run and was only directed to the source for the period from 1.5-3.5 minutes. The LC-MS/MS data was acquired and processed using Analyst 1.5.2 software (Sciex).
Values reported include both D- and L-forms.

[5] = Tissue distribution of folates 24 h after oral administration of folate forms to rat pups, with and without FR Ab (Example 3); assay type: in vivo; settings: for change of folates in the brain on antibody administration: antibody-treated pups vs pups without antibody; for Folate (mean), Cerebellum / Folate (mean), Cerebrum / Folate (mean), Kidney / Folate (mean), Liver: PND 21 rat pups, 4 mg/kg oral, 24 h
Description: To determine tissue distribution of orally administered folate forms in young rat pups and study the effect of folate receptor antibodies on this distribution. PND 21 rat pups weighing about 50 g were administered folate forms orally at a dose of 4 mg/kg. Animals were euthanized after 24 h and tissues collected for analyzing total methylfolate in each tissue to provide a measure of normal distribution.

[6] = Total folates in serum 24 h after oral administration of folate forms (Example 2); assay type: in vivo, rats; set-up: Total Folates in Serum (total 5-MTHF D- and L- plus folic acid): unit not given here; settings: for Total Folates in Serum (total 5-MTHF D- and L- plus folic acid): 4 mg/kg oral, 24 h
Description: as §1
Serum was withdrawn immediately before the rat was sacrificed. For extraction of folate from serum, an aliquot of the serum was diluted in 3 volumes of phosphate buffer pH 5.5, placed in a boiling water bath for 10 min, cooled, the protein precipitate separated by centrifugation and the clear supernatant was assayed for folate concentration.

[7] = non-pregnant rats without folate receptor antibody
[8] = male, Wistar, rat, in vivo, po, 4 mg/kg
[9] = male, Wistar, rat, in vivo, po, 4 mg/kg, 0.5 h
[10] = male, Wistar, rat, in vivo, po, 4 mg/kg, 1 h
[11] = male, Wistar, rat, in vivo, po, 4 mg/kg, 2 h
[12] = male, Wistar, rat, in vivo, po, 4 mg/kg, 4 h
[13] = non-pregnant rats, without antibody, 4 mg/kg oral, 24 h
[14] = pregnant rats, + Control IgG, 4 mg/kg oral, 24 h
[15] = pregnant rats, + FRAb, 4 mg/kg oral, 24 h
[16] = pregnant rats, w/o IgG, 4 mg/kg oral, 24 h
[17] = serum, 4 mg/kg single oral dose, 0.5 hr
[18] = serum, 4 mg/kg single oral dose, 1 hr
[19] = serum, 4 mg/kg single oral dose, 2 hr
[20] = serum, 4 mg/kg single oral dose, 4 hr

SMILES: Nc1nc2c(c(=O)[nH]1)N(C=O)C(CNc1ccc(C(=O)N[C@@H](CCC(=O)O)C(=O)O)cc1)CN2 (stereo partly shown) [Folinic acid, 5-formyl-tetrahydrofolate]
- tolerability [1]: tolerated
- tissue uptake of the unnatural D-isomer in ovary, brain, cerebellum and cortex [2, 7]: significant
- AUC0-24h, 5-Formyl-THF (Strep. faecalis activity) [3]: 135 ± 80 ng·h/mL
- AUC0-24h, 5-Methyl-THF (arithmetic difference) [3]: 1929 ± 542 ng·h/mL
- AUC0-24h, Total folates (l-casei activity) [3]: 2063 ± 587 ng·h/mL
- AUC0-inf, 5-Formyl-THF (Strep. faecalis activity) [3]: 140 ± 81 ng·h/mL
- AUC0-inf, 5-Methyl-THF (arithmetic difference) [3]: 2012 ± 567 ng·h/mL
- AUC0-inf, Total folates (l-casei activity) [3]: 2149 ± 612 ng·h/mL
- Cmax, 5-Formyl-THF (Strep. faecalis activity) [3]: 51 ± 50 ng/mL
- Cmax, 5-Methyl-THF (arithmetic difference) [3]: 367 ± 87 ng/mL
- Cmax, Total folates (l-casei activity) [3]: 393 ± 96 ng/mL
- t1/2, 5-Formyl-THF (Strep. faecalis activity) [3]: 9.5 ± 4.6 h
- t1/2, 5-Methyl-THF (arithmetic difference) [3]: 6.0 ± 1.9 h
- t1/2, Total folates (l-casei activity) [3]: 6.0 ± 1.9 h
- tmax, 5-Formyl-THF (Strep. faecalis activity) [3]: 73 ± 35 min
- tmax, 5-Methyl-THF (arithmetic difference) [3]: 142 ± 29 min
- tmax, Total folates (l-casei activity) [3]: 140 ± 32 min
- concentration at 0.5 h [4, 8]: 80.1 ng/mL
- concentration at 1 h [4, 8]: 55.9 ng/mL
- concentration at 2 h [4, 8]: 27.5 ng/mL
- concentration at 4 h [4, 8]: 21.7 ng/mL
- 5-MTHF [4, 9]: 109.7 ng/mL
- THF [4, 9]: 5.5 ng/mL
- Total Uptake [4, 9]: 195.3 ng/mL
- 5-MTHF [4, 10]: 115.7 ng/mL
- THF [4, 10]: 5.9 ng/mL
- Total Uptake [4, 10]: 177.4 ng/mL
- 5-MTHF [4, 11]: 103.3 ng/mL
- THF [4, 11]: 5.1 ng/mL
- Total Uptake [4, 11]: 135.9 ng/mL
- 5-MTHF [4, 12]: 120.7 ng/mL
- THF [4, 12]: 7.2 ng/mL
- Total Uptake [4, 12]: 149.6 ng/mL
- THF concentration relative to an equal dose of 5-formyl-6S-THF ([4]; rat, in vivo, po, 4 mg/kg): less than one fifth
- change of folates in the brain on antibody administration [5]: an increase in folates in the brain is observed

SMILES: Nc1nc2c(c(=O)[nH]1)N(C=O)[C@@H](CNc1ccc(C(=O)N[C@@H](CCC(=O)O)C(=O)O)cc1)CN2 [5-formyl-(6S)-tetrahydrofolate]
- concentrations of folates in ovary, brain and cerebellum compared to 5-methyl-6S-THF [2, 7]: much better concentrations of folates
- Total 5-MTHF + PGA in Cerebellum [2, 13]: 8.2
- Total 5-MTHF + PGA in Cortex [2, 13]: 1.5
- Total 5-MTHF + PGA in Kidney [2, 13]: 20.4
- Total 5-MTHF + PGA in Liver [2, 13]: 93.0
- Total 5-MTHF + PGA in Ovary [2, 13]: 9.8
- Total 5-MTHF + PGA in Brain [2, 13]: 4.8
- folate concentrations in placenta and embryo compared to 5-methyl-6S-THF or folinic acid ([2]; pregnant rats without folate receptor antibody): much better folate concentrations
- Total 5-MTHF + PGA in Embryo [2, 14]: 2.8 ng/mg
- Total 5-MTHF + PGA in Kidney [2, 14]: 19.8 ng/mg
- Total 5-MTHF + PGA in Liver [2, 14]: 38.2 ng/mg
- Total 5-MTHF + PGA in Ovary [2, 14]: 7.1 ng/mg
- Total 5-MTHF + PGA in Placenta [2, 14]: 3.3 ng/mg
- Total 5-MTHF + PGA in Brain [2, 14]: 4.8 ng/mg
- Total 5-MTHF + PGA in Embryo [2, 15]: 2.3 ng/mg
- Total 5-MTHF + PGA in Kidney [2, 15]: 14.3 ng/mg
- Total 5-MTHF + PGA in Liver [2, 15]: 39.1 ng/mg
- Total 5-MTHF + PGA in Ovary [2, 15]: 3.2 ng/mg
- Total 5-MTHF + PGA in Placenta [2, 15]: 3.0 ng/mg
- Total 5-MTHF + PGA in Brain [2, 15]: 3.5 ng/mg
- Total 5-MTHF + PGA in Embryo [2, 16]: 7.2 ng/mg
- Total 5-MTHF + PGA in Kidney [2, 16]: 20.2 ng/mg
- Total 5-MTHF + PGA in Liver [2, 16]: 44.8 ng/mg
- Total 5-MTHF + PGA in Ovary [2, 16]: 9.3 ng/mg
- Total 5-MTHF + PGA in Placenta [2, 16]: 9.0 ng/mg
- Total 5-MTHF + PGA in Brain [2, 16]: 2.0 ng/mg
- Total Folates in Serum (total 5-MTHF D- and L- plus folic acid) ([6]; Non-pregnant rats): 27.5
- concentrations of total folates in serum compared to other folate forms ([6]; especially pregnant rats injected with folate receptor antibody): superior concentrations of total folates
- Total Folates in Serum (total 5-MTHF D- and L- plus folic acid) ([6]; pregnant rats, Control Ab + Form): 247.1
- Total Folates in Serum (total 5-MTHF D- and L- plus folic acid) ([6]; pregnant rats, FRAb + Form): 228.8
- Total Folates in Serum (total 5-MTHF D- and L- plus folic acid) ([6]; pregnant rats, Form Only): 88.9
- serum THF and 5-MTHF compared to folinic acid ([4]; especially at one hour): Much better
- THF generation and total uptake compared to 5-methyl-(6S)-THF administration ([4]; serum, 4 mg/kg oral): much greater
- 5-FoTHF [4, 17]: 68.2 ng/mL
- THF [4, 17]: 22.9 ng/mL
- Total Uptake [4, 17]: 252.6 ng/mL
- 5-MTHF ([4]; serum, 4 mg/kg single oral dose, 0.5 hr, D- and L-forms): 161.6 ng/mL
- 5-FoTHF [4, 18]: 97.3 ng/mL
- THF [4, 18]: 35.8 ng/mL
- Total Uptake [4, 18]: 375.0 ng/mL
- 5-MTHF ([4]; serum, 4 mg/kg single oral dose, 1 hr, D- and L-forms): 241.9 ng/mL
- 5-FoTHF [4, 19]: 19.7 ng/mL
- THF [4, 19]: 9.0 ng/mL
- Total Uptake [4, 19]: 162.9 ng/mL
- 5-MTHF ([4]; serum, 4 mg/kg single oral dose, 2 hr, D- and L-forms): 144.1 ng/mL
- 5-FoTHF [4, 20]: 7.0 ng/mL
- THF [4, 20]: 39.1 ng/mL
- Total Uptake [4, 20]: 216.1 ng/mL
- 5-MTHF ([4]; serum, 4 mg/kg single oral dose, 4 hr, D- and L-forms): 173.5 ng/mL
- Folate (mean), Cerebellum ([5]; + FRAb (100 ug IP 24 h prior)): 69.5 ng/mg
- Folate (mean), Cerebrum ([5]; + FRAb (100 ug IP 24 h prior)): 13.2 ng/mg
- Folate (mean), Kidney ([5]; + FRAb (100 ug IP 24 h prior)): 48.7 ng/mg
- Folate (mean), Liver ([5]; + FRAb (100 ug IP 24 h prior)): 133.44 ng/mg
- Folate (mean), Cerebellum ([5]; no FRAb): 93.3 ng/mg
- Folate (mean), Cerebrum ([5]; no FRAb): 15.3 ng/mg
- Folate (mean), Kidney ([5]; no FRAb): 52.1 ng/mg
- Folate (mean), Liver ([5]; no FRAb): 80.0 ng/mg
- change of folates in the brain on antibody administration [5]: The opposite is observed
- folate concentrations in cerebellum and cerebrum compared to 5-methyl-6S-THF ([5]; rat pups with and without the antibody): much higher folate concentrations
